Results as given in patent US8513270B2, “Substituted heterocycles as Janus kinase inhibitors” (Incyte Corporation, priority 2006, dated 2013).
Where a name gives a salt, the structure may show the parent alone.

Experiments:
TF1-BCRABL1 cells = TF1-BCRABL1 cells (Homo sapiens, UniProt P00519); test: ABL1 cell based assay: viability of ABL1-dependent cell line (CellTiter-Glo); conditions: 72 hours, cell viability; read-out: EXAMPLE F JAK2-TF1-BCRABL1 IC50
Protocol: One or more compounds herein were tested for inhibitory activity of ABL1 targets according to at least one of the following cellular assays.
Cancer cell lines dependent on ABL1 kinase activity for proliferation and/or survival were plated at 3000 cells per well (96 well plate format) in RPMI 1640, and 10% FBS. Compounds were added to the cells in DMSO/media (final concentration 0.2% DMSO) and incubated for 72 hours at 37° C., 5% CO2. The effect of compound on cell viability was assessed using the CellTiter-Glo Luminescent Cell Viability Assay (Promega) followed by TopCount (Perkin Elmer, Boston, Mass.) quantitation. ABL1-dependent cell lines can include those naturally dependent on ABL1 activity or those engineered to be dependent on ABL1 activity (e.g. BaF/3 cells). The latter can be generated using wild-type ABL1 or mutant ABL1 (such as T315I ABL1) so that the activity of compounds can be assessed against different variants of the ABL1 kinase. Potential off-target effects of compounds were measured in parallel using a non-ABL1 driven cell line with the same assay readout. […] All experiments were performed in duplicate or greater.

[1] = target: T1, human JAK3 (a.a. 781-1124) (Homo sapiens, UniProt P52333); test: In vitro JAK kinase assay (HTRF), JAK3; type: biochemical; conditions: JAK3, 3 μM ATP; read-out: EXAMPLE A JAK2-JAK3 HTRF-2 IC50
T1 construct: JAK3 (a.a. 781-1124); His tag (N); made in house; host or cells: insect cells (baculovirus)
T1 sequence (P52333 781-1124): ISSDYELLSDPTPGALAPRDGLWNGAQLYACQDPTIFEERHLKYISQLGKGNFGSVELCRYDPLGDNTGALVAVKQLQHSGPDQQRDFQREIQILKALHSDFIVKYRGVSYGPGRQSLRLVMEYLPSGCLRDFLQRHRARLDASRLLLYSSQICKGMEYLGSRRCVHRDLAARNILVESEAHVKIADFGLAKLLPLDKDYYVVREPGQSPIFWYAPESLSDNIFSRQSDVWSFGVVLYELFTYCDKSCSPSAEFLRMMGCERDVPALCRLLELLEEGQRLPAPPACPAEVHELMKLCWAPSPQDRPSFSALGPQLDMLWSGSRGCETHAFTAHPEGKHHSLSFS
Protocol: (§1) Compounds herein were tested for inhibitory activity of JAK targets according to the following in vitro assay described in Park et al., Analytical Biochemistry 1999, 269, 94-104. The catalytic domains of human JAK1 (a.a. 837-1142), JAK2 (a.a. 828-1132) and JAK3 (a.a. 781-1124) with an N-terminal His tag were expressed using baculovirus in insect cells and purified. The catalytic activity of JAK1, JAK2 or JAK3 was assayed by measuring the phosphorylation of a biotinylated peptide. The phosphorylated peptide was detected by homogenous time resolved fluorescence (HTRF). IC50s of compounds were measured for each kinase in the reactions that contain the enzyme, ATP and 500 nM peptide in 50 mM Tris (pH 7.8) buffer with 100 mM NaCl, 5 mM DTT, and 0.1 mg/mL (0.01%) BSA. The ATP concentration in the reactions was 90 μM for JAK1, 30 μM for JAK2 and 3 μM for JAK3. Reactions were carried out at room temperature for 1 hr and then stopped with 20 μL 45 mM EDTA, 300 nM SA-APC, 6 nM Eu—Py20 in assay buffer (Perkin Elmer, Boston, Mass.). Binding to the Europium labeled antibody took place for 40 minutes and HTRF signal was measured on a Fusion plate reader (Perkin Elmer, Boston, Mass.).

[2] = tested on: JAK2_INA61 (cancer cell line dependent on cytokines and JAK/STAT signal transduction); test: Cellular assay: viability of cytokine-dependent cancer cell line (CellTiter-Glo); type: cell-based; conditions: 72 hours, read-out: EXAMPLE B JAK2_INA61 IC50
Protocol: One or more compounds herein were tested for inhibitory activity of JAK targets according to at least one of the following cellular assays.
Compounds were added to the cells in DMSO/media (final concentration 0.2% DMSO) and incubated for 72 hours at 37° C., 5% CO2. The effect of compound on cell viability was assessed using the CellTiter-Glo Luminescent Cell Viability Assay (Promega) followed by TopCount (Perkin Elmer, Boston, Mass.) quantitation. Potential off-target effects of compounds were measured in parallel using a non-JAK driven cell line with the same assay readout. […] All experiments were performed in duplicate.

[3] = target: T2, human JAK2 (a.a. 828-1132) (Homo sapiens, UniProt O60674); test: In vitro JAK kinase assay (HTRF), JAK2; type: biochemical; conditions: JAK2, 30 μM ATP; read-out: EXAMPLE A HTS-JAK2 HTRF-2 IC50
T2 construct: JAK2 (a.a. 828-1132); His tag (N); made in house; host or cells: insect cells (baculovirus)
T2 sequence (O60674 828-1132): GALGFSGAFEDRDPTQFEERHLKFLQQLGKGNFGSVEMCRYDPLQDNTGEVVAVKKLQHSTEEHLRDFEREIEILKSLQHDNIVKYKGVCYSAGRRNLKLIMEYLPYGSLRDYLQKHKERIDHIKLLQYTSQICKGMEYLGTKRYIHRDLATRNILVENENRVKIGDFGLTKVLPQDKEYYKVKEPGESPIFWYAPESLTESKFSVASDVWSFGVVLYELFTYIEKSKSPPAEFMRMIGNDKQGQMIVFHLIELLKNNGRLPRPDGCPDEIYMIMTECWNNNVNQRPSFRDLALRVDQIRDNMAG
Protocol: as §1

[4] = target: T3, human JAK1 (a.a. 837-1142) (Homo sapiens, UniProt P23458); test: In vitro JAK kinase assay (HTRF), JAK1; type: biochemical; conditions: JAK1, 90 μM ATP; read-out: EXAMPLE A JAK2-JAK1 HTRF-2 IC50
T3 construct: human JAK1 (a.a. 837-1142); His tag (N); made in house; host or cells: insect cells (baculovirus)
T3 sequence (P23458 849-1154): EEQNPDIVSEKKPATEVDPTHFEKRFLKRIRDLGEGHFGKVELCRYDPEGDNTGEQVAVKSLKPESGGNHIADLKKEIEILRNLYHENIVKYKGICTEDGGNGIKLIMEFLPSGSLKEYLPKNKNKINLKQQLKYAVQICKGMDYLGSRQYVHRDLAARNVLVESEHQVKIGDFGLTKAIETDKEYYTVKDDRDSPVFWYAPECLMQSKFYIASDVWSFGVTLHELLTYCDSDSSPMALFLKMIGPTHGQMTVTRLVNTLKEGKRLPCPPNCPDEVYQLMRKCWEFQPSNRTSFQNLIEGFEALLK
Protocol: as §1

TF1-BCRABL1 cells, sequence (P00519 whole entry, change not shown): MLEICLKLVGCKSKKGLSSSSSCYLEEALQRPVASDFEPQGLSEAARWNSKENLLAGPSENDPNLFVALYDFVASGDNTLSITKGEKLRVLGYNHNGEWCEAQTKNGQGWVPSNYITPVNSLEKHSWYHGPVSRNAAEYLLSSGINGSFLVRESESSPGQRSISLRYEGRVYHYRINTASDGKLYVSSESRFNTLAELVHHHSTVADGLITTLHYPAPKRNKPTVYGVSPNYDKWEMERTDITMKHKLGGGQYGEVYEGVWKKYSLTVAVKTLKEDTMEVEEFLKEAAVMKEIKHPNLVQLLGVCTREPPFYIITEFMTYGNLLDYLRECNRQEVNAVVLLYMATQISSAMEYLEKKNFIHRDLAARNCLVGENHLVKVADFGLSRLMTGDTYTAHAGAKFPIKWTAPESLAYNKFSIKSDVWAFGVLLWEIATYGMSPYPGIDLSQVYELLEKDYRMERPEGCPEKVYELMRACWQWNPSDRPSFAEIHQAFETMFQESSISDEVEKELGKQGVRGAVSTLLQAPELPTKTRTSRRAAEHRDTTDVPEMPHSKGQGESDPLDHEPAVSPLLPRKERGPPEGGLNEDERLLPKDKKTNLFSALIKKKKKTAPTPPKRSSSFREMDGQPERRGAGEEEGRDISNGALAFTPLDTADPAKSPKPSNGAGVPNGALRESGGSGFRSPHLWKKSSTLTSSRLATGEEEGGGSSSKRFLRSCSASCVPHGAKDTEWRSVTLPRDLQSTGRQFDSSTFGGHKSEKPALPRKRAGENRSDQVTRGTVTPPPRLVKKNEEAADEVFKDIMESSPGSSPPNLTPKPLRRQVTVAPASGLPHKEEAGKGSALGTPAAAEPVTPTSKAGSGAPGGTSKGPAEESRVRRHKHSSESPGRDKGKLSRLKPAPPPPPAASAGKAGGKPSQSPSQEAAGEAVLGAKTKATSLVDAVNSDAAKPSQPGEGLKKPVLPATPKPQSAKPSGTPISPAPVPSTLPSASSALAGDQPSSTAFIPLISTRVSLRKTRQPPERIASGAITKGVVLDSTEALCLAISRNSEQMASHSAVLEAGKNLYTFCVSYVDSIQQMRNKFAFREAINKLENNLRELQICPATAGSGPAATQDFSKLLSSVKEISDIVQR

## COc1ccc(C(=O)Nc2cccc(C(F)(F)F)c2)cc1-c1ccc2c(c1)[nH]c1ncncc12 [Example 60, 4-methoxy-3-(9H-pyrimido-[4,5-b]indol-7-yl)-N-[3-(trifluoromethyl)phenyl]-benzamide]
TF1-BCRABL1 cells
  GI50: ≤ 500 nM
[1]
  IC50: 500 to 1000 nM
[2]
  IC50: > 1000 nM
[3]
  IC50: ≤ 500 nM
[4]
  IC50: ≤ 500 nM

## Cc1ccc(NC(=O)c2cc(C(F)(F)F)ccc2C(F)(F)F)cc1-c1ccc2[nH]c3ncncc3c2c1 [Example 45, N-[4-methyl-3-(9H-pyrimido-[4,5-b]indol-6-yl)phenyl]-2,5-bis(trifluoromethyl)benzamide]
TF1-BCRABL1 cells
  GI50: 500 to 1000 nM
[1]
  IC50: > 1000 nM
[2]
  IC50: > 1000 nM
[3]
  IC50: > 1000 nM
[4]
  IC50: ≤ 500 nM

## O=C(Nc1ccc(F)c(-c2ccc3c(c2)[nH]c2ncncc23)c1)c1cccc(C(F)(F)F)c1 [Example 13, N-[4-fluoro-3-(9H-pyrimido-[4,5-b]indol-7-yl)phenyl]-3-(trifluoromethyl)benzamide]
TF1-BCRABL1 cells
  GI50: ≤ 500 nM
[1]
  IC50: ≤ 500 nM
[2]
  IC50: ≤ 500 nM
[3]
  IC50: ≤ 500 nM
[4]
  IC50: ≤ 500 nM

## Cc1ccc(C(=O)Nc2cccc(S(F)(F)(F)(F)F)c2)cc1-c1ccc2c(c1)[nH]c1ncncc12 [Example 65, 4-methyl-N-[3-(pentafluoro-λ(6)-sulfanyl)phenyl]-3-(9H-pyrimido[4,5-b]indol-7-yl)-benzamide]
TF1-BCRABL1 cells
  GI50: ≤ 500 nM
[1]
  IC50: ≤ 500 nM
[2]
  IC50: 500 to 1000 nM
[3]
  IC50: ≤ 500 nM
[4]
  IC50: ≤ 500 nM

## Cc1ccc(C(=O)Nc2cccc(C(F)(F)F)c2)cc1-c1ccc2c(c1)[nH]c1ncccc12 [Example 68, 4-Methyl-3-(9H-pyrido[2,3-b]indol-7-yl)-N-[3-(trifluoromethyl)phenyl]benzamide, trifluoroacetate salt]
TF1-BCRABL1 cells
  GI50: ≤ 500 nM
[1]
  IC50: ≤ 500 nM
[2]
  IC50: > 1000 nM
[3]
  IC50: ≤ 500 nM
[4]
  IC50: ≤ 500 nM

## Cc1ncc(NC(=O)c2cccc(C(F)(F)F)c2)cc1-c1ccc2c(c1)[nH]c1ncncc12 [Example 70, N-[6-methyl-5-(9H-pyrimido[4,5-b]indol-7-yl)pyridin-3-yl]-3-(trifluoromethyl)benzamide]
TF1-BCRABL1 cells
  GI50: ≤ 500 nM
[1]
  IC50: ≤ 500 nM
[2]
  IC50: 500 to 1000 nM
[3]
  IC50: ≤ 500 nM
[4]
  IC50: ≤ 500 nM

## Cc1ccc(NC(=O)c2cc(N3CCC(O)CC3)cc(C(F)(F)F)c2)cc1-c1ccc2c(c1)[nH]c1ncncc12 [Example 29, 3-(4-hydroxypiperidin-1-yl)-N-[4-methyl-3-(9H-pyrimido[4,5-b]indol-7-yl)phenyl]-5-(trifluoromethyl)benzamide]
TF1-BCRABL1 cells
  GI50: ≤ 500 nM
[1]
  IC50: ≤ 500 nM
[3]
  IC50: ≤ 500 nM
[4]
  IC50: ≤ 500 nM

## Cc1ccc(NC(=O)c2cc(-n3cnc(CN(C)C)c3)cc(C(F)(F)F)c2)cc1-c1ccc2c(c1)[nH]c1ncncc12 [Example 25, 3-{4-[(dimethylamino)methyl]-1H-imidazol-1-yl}-N-[4-methyl-3-(9H-pyrimido[4,5-b]-indol-7-yl)phenyl]-5-(trifluoro-methyl)benzamide]
TF1-BCRABL1 cells
  GI50: ≤ 500 nM
[1]
  IC50: ≤ 500 nM
[3]
  IC50: ≤ 500 nM
[4]
  IC50: ≤ 500 nM

## O=C(Nc1ccc(Cl)c(-c2ccc3c(c2)[nH]c2ncncc23)c1)c1cccc(C(F)(F)F)c1 [Example 17, N-[4-chloro-3-(9H-pyrimido-[4,5-b]indol-7-yl)phenyl]-3-(trifluoromethyl)benzamide]
TF1-BCRABL1 cells
  GI50: ≤ 500 nM
[1]
  IC50: ≤ 500 nM
[3]
  IC50: ≤ 500 nM
[4]
  IC50: ≤ 500 nM

## Cc1ccc(NC(=O)c2cc(N3CCOCC3)cc(C(F)(F)F)c2)cc1-c1ccc2c(c1)[nH]c1ncncc12 [Example 27, N-[4-methyl-3-(9H-pyrimido-[4,5-b]indol-7-yl)phenyl]-3-morpholin-4-yl-5-(trifluoromethyl)benzamide]
TF1-BCRABL1 cells
  GI50: ≤ 500 nM
[1]
  IC50: ≤ 500 nM
[3]
  IC50: ≤ 500 nM
[4]
  IC50: ≤ 500 nM

## Cc1ccc(NC(=O)c2cc(N3CCC(O)C3)cc(C(F)(F)F)c2)cc1-c1ccc2c(c1)[nH]c1ncncc12 (stereo not drawn) [Example 34, 3-(3-hydroxypyrrolidin-1-yl)-N-[4-methyl-3-(9H-pyrimido-[4,5-b]indol-7-yl)phenyl]-5-(trifluoromethyl)benzamide]
TF1-BCRABL1 cells
  GI50: ≤ 500 nM
[1]
  IC50: ≤ 500 nM
[3]
  IC50: ≤ 500 nM
[4]
  IC50: ≤ 500 nM

## Cc1ccc(NC(=O)c2cc(-n3cnc(C=O)c3)cc(C(F)(F)F)c2)cc1-c1ccc2c(c1)[nH]c1ncncc12 [Example 20, 3-(4-Formyl-1H-imidazol-1-yl)-N-[4-methyl-3-(9H-pyrimido[4,5-b]indol-7-yl)phenyl]-5-(trifluoromethyl)benzamide trifluoroacetate]
TF1-BCRABL1 cells
  GI50: ≤ 500 nM
[1]
  IC50: ≤ 500 nM
[3]
  IC50: ≤ 500 nM
[4]
  IC50: ≤ 500 nM

## Cc1ccc(NC(=O)c2cc(NCCCn3ccnc3)cc(C(F)(F)F)c2)cc1-c1ccc2c(c1)[nH]c1ncncc12 [Example 35, 3-{[3-(1H-imidazol-1-yl)-propyl]amino}-N-[4-methyl-3-(9H-pyrimido[4,5-b]indol-7-yl)phenyl]-5-(trifluoromethyl)-benzamide]
TF1-BCRABL1 cells
  GI50: ≤ 500 nM
[1]
  IC50: ≤ 500 nM
[3]
  IC50: ≤ 500 nM
[4]
  IC50: ≤ 500 nM

## CNCc1cn(-c2cc(C(=O)Nc3ccc(C)c(-c4ccc5c(c4)[nH]c4ncncc45)c3)cc(C(F)(F)F)c2)cn1 [Example 22, 3-4-[(Methylamino)methyl]-1H-imidazol-1-yl-N-[4-methyl-3-(9H-pyrimido[4,5-b]-indol-7-yl)phenyl]-5-(trifluoromethyl)benzamide tris(trifluoroacetate)]
TF1-BCRABL1 cells
  GI50: ≤ 500 nM
[1]
  IC50: ≤ 500 nM
[3]
  IC50: ≤ 500 nM
[4]
  IC50: ≤ 500 nM

## Cc1ncc(NC(=O)c2cc(F)cc(C(F)(F)F)c2)cc1-c1ccc2c(c1)[nH]c1ncncc12 [Example 71, 3-Fluoro-N-[6-methyl-5-(9H-pyrimido[4,5-b]indol-7-yl)pyridin-3-yl]-5-(trifluoromethyl)benzamide]
TF1-BCRABL1 cells
  GI50: ≤ 500 nM
[1]
  IC50: ≤ 500 nM
[3]
  IC50: ≤ 500 nM
[4]
  IC50: ≤ 500 nM

## Cc1ncc(NC(=O)c2cc(-n3cnc(CO)c3)cc(C(F)(F)F)c2)cc1-c1ccc2c(c1)[nH]c1ncncc12 [Example 75, 3-[4-(hydroxymethyl)-1H-imidazol-1-yl]-N-[6-methyl-5-(9H-pyrimido[4,5-b]indol-7-yl)pyridin-3-yl]-5-(trifluoromethyl)benzamide tris(trifluoroacetate) (salt)]
TF1-BCRABL1 cells
  GI50: ≤ 500 nM
[1]
  IC50: ≤ 500 nM
[3]
  IC50: ≤ 500 nM
[4]
  IC50: ≤ 500 nM

## Cc1ncc(NC(=O)c2cc(-n3cncn3)cc(C(F)(F)F)c2)cc1-c1ccc2c(c1)[nH]c1ncncc12 [Example 73, N-[6-methyl-5-(9H-pyrimido[4,5-b]indol-7-yl)pyridin-3-yl]-3-(1H-1,2,4-triazol-1-yl)-5-(trifluoromethyl)benzamide bis(trifluoroacetate)]
TF1-BCRABL1 cells
  GI50: ≤ 500 nM
[1]
  IC50: ≤ 500 nM
[3]
  IC50: ≤ 500 nM
[4]
  IC50: ≤ 500 nM

## Cc1ccc(NC(=O)c2cc(NCCN3CCOCC3)cc(C(F)(F)F)c2)cc1-c1ccc2c(c1)[nH]c1ncncc12 [Example 31, N-[4-methyl-3-(9H-pyrimido-[4,5-b]indol-7-yl)phenyl]-3-[(2-morpholin-4-ylethyl)amino]-5-(trifluoromethyl)benzamide]
TF1-BCRABL1 cells
  GI50: ≤ 500 nM
[1]
  IC50: ≤ 500 nM
[3]
  IC50: ≤ 500 nM
[4]
  IC50: ≤ 500 nM
